We go through one compound from US11493517B2, “Eukaryotic translation initiation factors (EIFS) as novel biomarkers in head and neck squamous cell carcinoma (HNSCC)” (Otto-von-Guericke-Universität Magdeburg, priority 2020, dated 2022).

Test [1] deals with moderately differentiated laryngeal cancer cell lines (SNU-899, SNU-1066, SNU-1214). Description: MTT cell viability assay in cell culture. It counts as cell-based. The procedure: MTT Assay in Cell Culture Cell viability assays were carried out with 3 moderately differentiated laryngeal cancer cell lines (SNU-899, SNU-1066, SNU-1214}. MTT reagent stock solution was prepared by dissolving 5 mg crystal in 1 ml PBS and filter sterilization. The cell culture medium was aspirated and replaced by 100 μl fresh medium and 10 μl MTT stock solution per well. The plates were incubated at 37° C. for two hours. The supernatant was removed and 100 μl DMSO was added to each well. After 15-minute incubation at room temperature in a orbital shaker the absorption at […] was detected. All measurements were performed three times using GloMax@-Multi+Microplate Multimode Reader (Promega, Germany}. All experiments were performed three times with three repetitions.
A general note: Tetrazolium assays rely on reduction of a dye to a coloured formazan, in cell work by metabolically active cells.

For test [2], the system named is 3D-organoids of HNSCC derived from patient populations. Description: Patient derived 3D-organoids chemosensitivity testing (CellTiter-Glo luminescence cell viability assay). The conditions noted are these: for IC50: Homo sapiens, patient derived HNSCC 3D-organoids, 72 h incubation. It counts as cell-based. The procedure: Patient Derived 3D-Organoids (PD30} and Chemosensitivity Testing Tumor samples from patients, who have undergone resection in the ENT clinic of Otto-von-Guericke University in Magdeburg, were incubated overnight in the RPM medium containing penicillin, streptomycin and amphotericin. On the following day, the tissue samples were crushed, passed through a sieve set to produce a size fraction of between […], which were then incubated on 24-well plates at 37° C. The PD30s were incubated with Salubrinal in a 384-well culture plate for 72 h (i.e. the double population doubling time}. Thereafter, the CellTiter-Glo® luminescence cell viability assay was performed. The reagent mixture was assembled according to the manufacturer's instructions. All experiments were performed three times with three repetitions
A general note: Cellular ATP, detected with luciferase, serves as a proxy for viable cell number.

One may read the IC50 as the concentration at which inhibition is half-maximal.

Molecules are shown by their SMILES. Where two headings read alike, the source gives them in different places.

For the compound `O=C(/C=C/c1ccccc1)NC(NC(=S)Nc1cccc2cccnc12)C(Cl)(Cl)Cl` (centres unmarked) [Salubrinal], the cytotoxicity at 50 µM in test [1] (effect dependent on the cell line and on the dosage, highest efficacy at 50 μM after 72 hours, read-out: reduction of the viability of the cells) lay within 20 to 40%. In addition, the “effect on cell viability (FIG. 4)” value in test [1] (in words) is reported as “reduction in cell viability”. The IC50 in test [2] (read-out: IC50 range across samples, reduction of cell viability, range over samples) is 16 to 158 µM; in test [2] (read-out: average IC50, reduction of cell viability, average over samples), 56 µM. The “effect on cell viability in 3D-cell culture (FIG. 5)” value in test [2] (in words) was “reduction of cell viability”.
